From ChEMBL document CHEMBL3301472, “MMV Malaria Box HIV and cytotoxicity screening”

Columns and labels:
Assay type in all cases: toxicity, cell-based
[1] = MMV: MTT Cytotoxicity Assay Day 3 pi, U87-CD4-CCR5 cells, % cell death @ 5mM compound; conditions: human, u87-cd4-ccr5, 5000 µM
[2] = MMV: MTT Cytotoxicity Assay Day 3 pi, U87-CD4-CXCR4 cells, % cell death @ 5mM compound; conditions: human, u87-cd4-cxcr4, 5000 µM
[3] = MMV: MTT Cytotoxicity Assay Day 7 pi of Assay #6 (compound washed out Day 1 pi), U87-CD4-CCR5 cells, % cell death @ 5mM compound; conditions: human, u87-cd4-ccr5, 5000 µM
[4] = MMV: MTT Cytotoxicity Assay Day 7 pi of Assay #7 (compound washed out Day 1 pi), U87-CD4-CXCR4 cells, % cell death @ 5mM compound; conditions: human, u87-cd4-cxcr4, 5000 µM
[5] = MMV: MTT Cytotoxicity Assay Day 7 pi of Assay #10 (NO washout), U87-CD4-CCR5 cells, % cell death @ 5mM compound; conditions: human, u87-cd4-ccr5, 5000 µM
[6] = MMV: MTT Cytotoxicity Assay Day 7 pi of Assay #11 (NO washout), U87-CD4-CXCR4 cells, % cell death @ 5mM compound; conditions: human, u87-cd4-cxcr4, 5000 µM

SMILES	% Cell Death [1]	% Cell Death [2]	% Cell Death [3]	% Cell Death [4]	% Cell Death [5]	% Cell Death [6]
CC1CC2=C(CC1CNCCCN(C)C)C(C)(C)CCC2 (stereo not given)	-1	36	-9	23	19	-30
CC(Oc1ccc(NC(=O)c2cccs2)cc1)C(=O)c1ccc(Cl)cc1 (stereo not given)	-10	1	40	60	2	-5
COc1ccc(-n2ccnc2SCC(=O)Nc2cc(C)ccc2C)c(OC)c1	18	54	32	-16	71	78
CCOc1c(Cl)cc(CNCC(O)c2ccccc2)cc1OC (stereo not given)	14	21	20	-17	2	-40
CC1CN(C(=O)c2sc3ccccc3c2Cl)CC(C)O1 (stereo not given)	107	47	7	45	124	105
CCOc1c(Br)cc(C2C(C(=O)OC)=CN(C)C=C2C(=O)OC)cc1OC	30	21	-1	19	30	30
CCOc1ccc2c(c1)CN(Cc1ccc(Cl)cc1)CO2	8	32	11	-14	13	20
CC(C)OCc1cc(CN2CCN(c3cccc(Cl)c3)CC2)c(O)c2ncccc12	14	19	19	-12	125	32
COc1ccc2c(c1)C1(Nc3ccccc3-c3nc4ccccc4n31)C(=O)N2 (stereo not given)	-75	13	-9	-24	29	9
COc1ccc2nc(C)cc(Nc3ccccc3O)c2c1	5	30	14	-12	6	-34
Cc1ccc(N2C(=O)C3C(C2=O)C2(c4ccccc4)C(=O)C3(c3ccccc3)C(c3ccccc3)=C2c2ccccc2)cc1 (stereo not given)	-31	36	0	5	33	-35
c1ccc(Cn2c(N=Nc3c(Nc4ccccc4)ccc4ccccc34)nc3ccccc32)cc1	92	97	95	99	83	101
CCOc1ccc(Nc2ccnc3cc(Cl)ccc23)cc1	35	78	20	47	72	-19
Cc1ccc(Nc2nc(-c3ccccn3)cs2)cc1	24	29	20	-17	21	12
CCOC(=O)c1cnc2ccc(CC)cc2c1O	1	22	13	-25	21	42
Cc1ccc(Nc2nc(N)c3ccccc3n2)cc1Cl	-34	36	-17	-9	-2	-31
COc1ccc(-c2c(C)nn3c(N)c(C#N)cnc23)cc1OC	83	98	93	89	124	93
Cc1nc2ccccc2c(O)c1CC=C(Cl)Cl	19	30	-2	20	26	-3
COc1ccc2nc(N)nc(C)c2c1	15	34	-35	-3	17	15
CCOc1cc(CNC(C)C(O)c2ccccc2)cc(Cl)c1OCC (stereo not given)	40	89	32	25	67	73
CC(C)(C)C(=O)Nc1ccc(C(=O)Nc2cccc(-c3nc4ccccc4[nH]3)c2)cc1	17	20	18	-22	4	85
CCOc1ccc(N2C(N)=NC(N)=NC2(C)C)cc1.Cl	56	57	56	35	135	-36
CN1c2ccccc2N(C)C1c1ccc2c(c1)OCO2	-7	3	10	16	1	-2
Cc1c(C)n(Cc2ccc(F)cc2)c2ccc(C(=O)NCc3ccco3)cc12	106	95	78	18	146	103
Cn1c(=O)c2cc(C(=O)NCCCN3CCCCCC3)sc2c2ccccc21	4	29	35	-51	23	29
O=C(NCC1Cc2cccc(-c3ccncc3)c2O1)c1csc2c1CCCC2 (stereo not given)	4	2	7	-22	17	60
COc1ccc2sc(N(Cc3cccnc3)C(=O)c3ccc(C#N)cc3)nc2c1	-25	29	2	-25	2	-31
CCCCN(CCCC)S(=O)(=O)c1ccc(NC(=O)c2ccco2)cc1	58	45	36	41	74	39
CC(C)(C)c1ccc(C(=O)Nc2nc3ccccc3s2)cc1	1	12	20	-23	24	-30
N#Cc1nc(Cc2cccc3ccccc23)oc1N1CCN(C(c2ccccc2)c2ccccc2)CC1	112	101	78	93	109	-30
